Common to all, as to type: ADME, subcellular
A short description of data set [1]: Drug level in human liver S9 fraction treated with 2-(2-butyl-4-isopropyl-6-oxo-1-((2'-(5-oxo-4,5-dihydro-1,2,4-oxadiazol-3-yl)biphenyl-4-yl)methyl)-1,6-dihydropyrimidin-5-yl)acetic acid.
The nature of data set [2]: Drug level in mouse liver S9 fraction treated with BR101549.
A short description of data set [3]: Drug level in human liver S9 fraction treated with BR101549.
Data set [4] can be described thus: Drug level in rat liver S9 fraction treated with 2-(2-butyl-4-isopropyl-6-oxo-1-((2'-(5-oxo-4,5-dihydro-1,2,4-oxadiazol-3-yl)biphenyl-4-yl)methyl)-1,6-dihydropyrimidin-5-yl)acetic acid.
The nature of data set [5]: Drug level in rat liver S9 fraction treated with BR101549.
Data set [6] is described as follows: Drug level in mouse liver S9 fraction treated with 2-(2-butyl-4-isopropyl-6-oxo-1-((2'-(5-oxo-4,5-dihydro-1,2,4-oxadiazol-3-yl)biphenyl-4-yl)methyl)-1,6-dihydropyrimidin-5-yl)acetic acid.

On to `CCCCc1nc(C(C)C)c(CC(=O)O[C@@H]2O[C@H](C(=O)O)[C@@H](O)[C@H](O)[C@H]2O)c(=O)n1Cc1ccc(-c2ccccc2-c2noc(=O)[nH]2)cc1`, for which the Drug metabolism result in data set [1] is recorded as “Metabolite_Detected”; in data set [2], “Metabolite_Notdetected”; in data set [3], “Metabolite_Notdetected”; in data set [4] it was “Metabolite_Detected”; in data set [5], “Metabolite_Notdetected”; in data set [6], “Metabolite_Detected”.

The values above are taken from ChEMBL document CHEMBL4330101, “Identification of BR101549 as a lead candidate of non-TZD PPARγ agonist for the treatment of type 2 diabetes: Proof-of-concept evaluation and SAR” (Bioorg Med Chem Lett, 2019).
